According to publication PMC6268492, “Synthesis and Antiangiogenic Activity of Novel Gambogic Acid Derivatives” (Molecules, 2012):
Where two headings read alike, the source gives them in different places.

What was measured:
LO2 = assay: MTT assay, cytotoxicity; type: cell-based; conditions: read-out: IC50, inhibition of cell proliferation
Description: (§1) HepG2, HCT116, HeLa and LO2 cell lines were cultured in DMEM containing 10% fetal bovine serum (FBS), 100 IU/mL penicillin and 100 µg/mL streptomycin; A549 and K562 cell lines were cultured in RPMI 1640 medium containing 10% fetal bovine serum (FBS), 100 IU/mL penicillin and 100 µg/mL streptomycin; Human umbilical vein endothelial cells (HUVECs) were cultured on gelatin-coated culture flasks in M-199 medium with 20% fetal bovine serum (FBS), 2 ng/mL VEGF, 10 ng/mL basic FGF, 100 IU/mL penicillin, and 100 μg/mL streptomycin; all of them were obtained from the American Type Culture Collection (ATCC) and all cell lines were incubated in an atmosphere of 5% CO2 at 37 °C.
(§2) Cells were treated with various concentrations of compound in 96-well culture plates for 24 h in final volumes of 200 μL (5 × 10^3 cells/well). Then 20 μL of MTT solution (5 mg/mL) was added to each well, and cells were incubated for an additional 3 h. Then the medium was carefully removed, and precipitates were dissolved in 150 μL of DMSO, shaken mechanically for 30 min, and then absorbance values at a wavelength of 570 nm were taken on a spectrophotometer (Molecular Devices, Sunnyvale, CA, USA). Values were calculated using percentage of growth versus untreated control. The IC50 was defined as the concentration that caused 50% inhibition of cell proliferation, and was calculated by SAS statistical software.

HUVEC = assay: MTT assay, cell proliferation; type: cell-based, Human; conditions: 24 h, read-out: IC50, inhibition of cell proliferation
Description: Inhibiting the proliferation of ECs is another important strategy for antiangiogenesis. […] As the exposure time of these derivatives was 24 h in the migration assay and 6 h in the tube formation assay, the effect of the incubation for 24 h in the presence of these compounds on HUVECs proliferation was then tested. Cell viability was assessed by the MTT method. We can see from Table 4 that these compounds had different antiproliferative activities.
as §1, §2

HepG2 = assay: MTT assay, cell proliferation; type: cell-based; conditions: 24 h, read-out: IC50, inhibition of cell proliferation
Description: as §1, §2

K562 = assay: MTT assay, cell proliferation; type: cell-based; conditions: 24 h, read-out: IC50, inhibition of cell proliferation
Description: as §1, §2

HeLa = assay: MTT assay, cell proliferation; type: cell-based; conditions: 24 h, read-out: IC50, inhibition of cell proliferation
Description: as §1, §2

HCT116 = assay: MTT assay, cell proliferation; type: cell-based; conditions: read-out: IC50, inhibition of cell proliferation
Description: as §1, §2

A549 = assay: MTT assay, cell proliferation; type: cell-based; conditions: 24 h, read-out: IC50, inhibition of cell proliferation
Description: as §1, §2

[1] = tested on: transgenic fli-1: enhanced GFP zebrafish embryos; assay: Zebrafish embryo assay: antiangiogenic effects; type: in vivo, zebrafish (Danio rerio); conditions: zebrafish embryos
Description: As stated previously, zebrafish is regarded as a powerful tool in the study of human diseases. […] In this study, all GA derivatives were incubated with the transgenic friend leukemia integration-1 (fli-1): enhanced GFP zebrafish embryos which carried a fli-1 promoter which can drive the expression of GFP in the whole endothelium.
Figure 1 Effects on neovascularization in zebrafish embryos. The transgenic fli-1: enhanced GFP zebrafish embryos in embryo water (0.2 g/L of instant ocean salt in distilled water) incubated with 1 μM of compounds at 6 h postfertilization (hpf) for 24 h. Zebrafish embryos were imaged (Imager.Z1, magnification: left, 40×; right, 100×).
Using transgenic fli-1: enhanced GFP zebrafish embryos, we investigated the effects of all compounds on angiogenesis. […] At about 6 h post fertilization (hpf), the embryos were sorted in the 6-well plate (six embryos/well), removing dead and unhealthy embryos. Then the embryos were treated with the indicated concentrations of compounds which were added into embryo water. After incubation for 24 or 48 h, the embryos were anesthetized using 0.05% 2-phenoxyethanol in embryo water, quantified and photographed.

Compound	IC50 (LO2; 24 h) [µM]	IC50 (HUVEC) [µM]	IC50 (HepG2) [µM]	IC50 (K562) [µM]	IC50 (HeLa) [µM]	IC50 (HCT116; 24 h) [µM]	IC50 (A549) [µM]	IC50 (HUVEC; Homo sapiens) [µM]	IC50 (HepG2; Homo sapiens) [µM]	IC50 (K562; Homo sapiens) [µM]	IC50 (HeLa; Homo sapiens) [µM]	IC50 (HCT116; Homo sapiens, HCT-116, 24 h) [µM]	IC50 (A549; Homo sapiens) [µM]	IC50 (LO2; Homo sapiens, L02, 24 h) [µM]	antiangiogenic rates ([1]; 1 μM)	inhibition in vivo at 2.5 µM ([1]; Danio rerio, 2.5 μM, vs vehicle (0.05% DMSO), read-out: Anti-angiogenic phenotype) [%]	inhibition in vivo at 10 µM ([1]; Danio rerio, 10 μM, vs vehicle (0.05% DMSO), read-out: Anti-angiogenic phenotype) [%]
3-Ethanonephenyl gambogate [Compound 11]	3.94 ± 0.19	3.48 ± 0.18	3.64 ± 0.53	2.09 ± 0.19	3.31 ± 0.24	3.13 ± 0.3	3.31 ± 0.45										
CC(C)=CCCC1(C)C=Cc2c(O)c3c(c(CC=C(C)C)c2O1)OC12C(=CC4CC1C(C)(C)OC2(C/C=C(/C)C(=O)Oc1ccc(C)c([N+](=O)[O-])c1)C4=O)C3=O (centres unmarked) [Compound 1, 4-Methyl-3-nitrophenyl gambogate]								45.2 ± 2.64	30.8 ± 2.76	10.2 ± 0.48	32.9 ± 1.69	25.5 ± 1.79	43.5 ± 3.92				
CC(C)=CCCC1(C)C=Cc2c(O)c3c(c(CC=C(C)C)c2O1)OC12C(=CC4CC1C(C)(C)OC2(C/C=C(/C)C(=O)Oc1c(Br)ccc(F)c1F)C4=O)C3=O (centres unmarked) [Compound 2, 6-Bromo-2,3-difluorophenyl gambogate]								31.9 ± 1.27	41.4 ± 3.52	16.1 ± 1.74	57 ± 0.62	45.3 ± 4.2	49.1 ± 5.16				
C=CCc1ccc(OC(=O)/C(C)=C\CC23OC(C)(C)C4CC(C=C5C(=O)c6c(O)c7c(c(CC=C(C)C)c6OC542)OC(C)(CCC=C(C)C)C=C7)C3=O)c(OC)c1 (centres unmarked) [Compound 3, 4-Allyl-2-methoxyphenyl gambogate]								52.7 ± 1.15	28.8 ± 2.84	8.18 ± 1.22	13.1 ± 0.77	18.7 ± 0.97	38 ± 3.1				
CC(=O)c1ccc(OC(=O)/C(C)=C\CC23OC(C)(C)C4CC(C=C5C(=O)c6c(O)c7c(c(CC=C(C)C)c6OC542)OC(C)(CCC=C(C)C)C=C7)C3=O)c([N+](=O)[O-])c1 (centres unmarked) [Compound 5, 2-Nitro-4-ethanonephenyl gambogate]								4.39 ± 0.27	9.45 ± 1.42	2.03 ± 0.2	6.37 ± 0.11	5.47 ± 0.24	5.53 ± 0.4	4.03 ± 0.34			
CC(C)=CCCC1(C)C=Cc2c(O)c3c(c(CC=C(C)C)c2O1)OC12C(=CC4CC1C(C)(C)OC2(C/C=C(/C)C(=O)Oc1cc2ccccc2oc1=O)C4=O)C3=O (centres unmarked) [Compound 6, Coumarin-3-gambogate]								14.6 ± 0.34	25.8 ± 1.76	5.47 ± 0.15	33.3 ± 1.83	14.5 ± 1.22	19.7 ± 2.62	> 20			
CC(C)=CCCC1(C)C=Cc2c(O)c3c(c(CC=C(C)C)c2O1)OC12C(=CC4CC1C(C)(C)OC2(C/C=C(/C)C(=O)Oc1ccc2ccc(=O)oc2c1)C4=O)C3=O (centres unmarked) [Compound 7, Coumarin-7-gambogate]								10.9 ± 0.72	10.8 ± 1.1	2.5 ± 0.12	16.1 ± 0.55	6 ± 0.4	15.4 ± 2.57	8.28 ± 0.33			
CC(C)=CCCC1(C)C=Cc2c(O)c3c(c(CC=C(C)C)c2O1)OC12C(=CC4CC1C(C)(C)OC2(C/C=C(/C)C(=O)Oc1cccc([N+](=O)[O-])c1)C4=O)C3=O (centres unmarked) [Compound 8, 3-Nitrophenyl gambogate]								77.5 ± 3.65	> 80	17.9 ± 1.38	> 80	66.4 ± 1.1	> 80				
CC(C)=CCC/C(C)=C/COC(=O)/C(C)=C\CC12OC(C)(C)C3CC(C=C4C(=O)c5c(O)c6c(c(CC=C(C)C)c5OC431)OC(C)(CCC=C(C)C)C=C6)C2=O (centres unmarked) [Compound 10, Geraniol gambogate]								> 80	> 80	> 80	> 80	> 80	> 80				
CC(C)=CCCC1(C)C=Cc2c(O)c3c(c(CC=C(C)C)c2O1)OC12C(=CC4CC1C(C)(C)OC2(C/C=C(/C)C(=O)Oc1cccc(C#N)c1)C4=O)C3=O (centres unmarked) [Compound 12, 3-Cyanophenyl gambogate]								7.58 ± 1.36	7.8 ± 0.11	1.79 ± 0.08	7.1 ± 1.43	5.57 ± 0.26	10.7 ± 0.26	5.15 ± 1.19			
COc1ccc(OC(=O)/C(C)=C\CC23OC(C)(C)C4CC(C=C5C(=O)c6c(O)c7c(c(CC=C(C)C)c6OC542)OC(C)(CCC=C(C)C)C=C7)C3=O)cc1 (centres unmarked) [Compound 13, 4-Methoxyphenyl gambogate]								27.7 ± 2.77	60.5 ± 4.24	8.05 ± 0.28	> 80	17.5 ± 1.59	66.8 ± 4.59				
CC(C)=CCCC1(C)C=Cc2c(O)c3c(c(CC=C(C)C)c2O1)OC12C(=CC4CC1C(C)(C)OC2(C/C=C(/C)C(=O)Oc1cccc(C)c1[N+](=O)[O-])C4=O)C3=O (centres unmarked) [Compound 14, 3-Methyl-2-nitrophenyl gambogate]								42 ± 2.76	40.6 ± 2.75	22.6 ± 0.53	> 80	34.8 ± 1.84	> 80	70.8 ± 2.47			
CC(C)=CCCC1(C)C=Cc2c(O)c3c(c(CC=C(C)C)c2O1)OC12C(=CC4CC1C(C)(C)OC2(C/C=C(/C)C(=O)Oc1cccc(C=O)c1)C4=O)C3=O (centres unmarked) [Compound 15, 3-Formylphenyl gambogate]								13.6 ± 1.16	10.85 ± 0.06	6.11 ± 0.39	62.6 ± 3.12	6.8 ± 0.78	33 ± 1.5	14.8 ± 1.19			
CC(C)=CCCC1(C)C=Cc2c(O)c3c(c(CC=C(C)C)c2O1)OC12C(=CC4CC1C(C)(C)OC2(C/C=C(/C)C(=O)Oc1ccccc1Br)C4=O)C3=O (centres unmarked) [Compound 17, 2-Bromophenyl gambogate]								29.9 ± 1.44	61.9 ± 2.69	27 ± 1.41	> 80	33 ± 1.27	> 80	72.8 ± 2.84			
COc1ccc(-c2csc(NC(=O)/C(C)=C\CC34OC(C)(C)C5CC(C=C6C(=O)c7c(O)c8c(c(CC=C(C)C)c7OC653)OC(C)(CCC=C(C)C)C=C8)C4=O)n2)cc1 (centres unmarked) [Compound 31, 4-(4-Methoxyphenyl)thiazol-2-gambogamide]								30.2 ± 2.04	49.2 ± 4.31	13.7 ± 0.56	57.9 ± 2.6	18.9 ± 1.34	61.6 ± 1.73		inactive	< 25	25 to 50
